61 compounds from US11795169B2, “MAP4K4 inhibitors” (IMPERIAL COLLEGE INNOVATIONS LIMITED, priority 2017, dated 2023) can be followed below.

Where a name gives a salt, the structure may show the parent alone.

Chain of human MAP4K4 kinase domain (O95819 25-289): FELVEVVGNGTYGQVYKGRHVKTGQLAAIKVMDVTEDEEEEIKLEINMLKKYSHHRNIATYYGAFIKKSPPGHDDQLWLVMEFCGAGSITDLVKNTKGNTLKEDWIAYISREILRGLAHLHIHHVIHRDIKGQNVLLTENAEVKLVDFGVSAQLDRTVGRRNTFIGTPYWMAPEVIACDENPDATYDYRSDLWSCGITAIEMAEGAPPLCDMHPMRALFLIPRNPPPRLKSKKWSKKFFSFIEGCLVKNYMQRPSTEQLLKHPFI

The target of this test is human MAP4K4 kinase domain (Homo sapiens (Human), UniProt O95819). Description: MAP4K4 kinase activity, CisBio HTRF Transcreener ADP assay. The test is classed as biochemical. Conditions: ATP at Km (10 μM), 0.5 nM kinase domain, 2 h; read-out: MAP4K4. From the text:
Compounds of the present invention were screened for their inhibitory activity against MAP4K4, versus selected off-target hits found with early members of this chemical series. MAP4K4 kinase activity was monitored using the CisBio HTRF Transcreener ADP assay, acompetitive immunoassay with a reproducible Z′>0.6. In the detection step, endogenous ADP and d2-labeled ADP compete for binding an anti-ADP monoclonal antibody labelled with Eu^3+ cryptate. A ratiometric fluorescent read-out is used at 665 and 620 nm. […] Assays were run in Greiner low volume plates with a final reaction volume of 10 μl. The MAP4K4 inhibition data are provided in Table 33 below for selected compounds of the present invention. The data has been categorised based on the IC50 value of the compound as “A”, “B” or “C”.
Turning to `O=c1[nH]cnc2c1c(-c1ccc(OCC(O)CN3CCS(=O)(=O)CC3)cc1)cn2-c1ccccc1` (stereo not shown) [Ex-51], the IC50 is not above 100 nM.

Take `O=c1[nH]cnc2c(-c3ccc(OCCCN4CCOCC4)cc3)cn(-c3ccccc3)c12` [Ex-84, 7-[4-(3-Morpholin-4-yl-propoxy)-phenyl]-5-phenyl-3,5-dihydro-pyrrolo[3,2-d]pyrimidin-4-one]: the IC50 was 100 to 1000 nM.

`CN(CC(O)COc1ccc(-c2cn(-c3ccccc3)c3c(=O)[nH]cnc23)cc1)C1CC1` (stereo not shown) [Ex-90]: the IC50 lay within 100 to 1000 nM.

Regarding `CC(=O)Nc1ccc(-c2cn(-c3ccccc3)c3nc[nH]c(=O)c23)cc1` [Ex-9], the IC50 is not above 100 nM.

On to `O=C(CO)Nc1ccc(-c2cn(-c3ccccc3)c3nc[nH]c(=O)c23)cc1` [Ex-14], for which the IC50 was not above 100 nM.

In the case of `C[C@@H](O)COc1ccc(-c2cn(-c3ccccc3)c3nc[nH]c(=O)c23)cc1` [Ex-52], the IC50 is not above 100 nM.

As to `COc1cccc(-n2cc(-c3ccc(OCC(O)CN4CCOCC4)cc3)c3c(=O)[nH]cnc32)c1` (stereo not shown) [Ex-41, 5-[4-(2-Hydroxy-3-morpholin-4-yl-propoxy)-phenyl]-7-(3-methoxy-phenyl)-3,7-dihydro-pyrrolo[2,3-d]pyrimidin-4-one], the IC50 was not above 100 nM.

As to `NC(=O)Cc1ccc(-c2cn(-c3ccccc3)c3nc[nH]c(=O)c23)cc1` [Ex-83, 2-[4-(4-Oxo-7-phenyl-4,7-dihydro-3H-pyrrolo[2,3-d]pyrimidin-5-yl)-phenyl]-acetamide], the IC50 is not above 100 nM.

Take `CCOC(=O)Cc1ccc(-c2cn(-c3ccccc3)c3nc[nH]c(=O)c23)cc1` [Ex-10, [4-(4-oxo-7-phenyl-4,7-dihydro-3H-pyrrolo[2,3-d]pyrimidin-5-yl)-phenyl]-acetic acid ethyl ester]: the IC50 is not above 100 nM.

As for `NCC(=O)Nc1ccc(-c2cn(-c3ccccc3)c3nc[nH]c(=O)c23)cc1` [Ex-76], the IC50 was not above 100 nM.

For `CN(C)CCOc1ccc(-c2cn(-c3ccccc3)c3nc[nH]c(=O)c23)cc1` [Ex-15], the IC50 is not above 100 nM.

`COC(COc1ccc(-c2cn(-c3ccccc3)c3nc[nH]c(=O)c23)cc1)CN1CCOCC1` (stereo not shown) [Ex-28]: the IC50 was not above 100 nM.

`CN1CCN(CC(O)COc2ccc(-c3cn(-c4ccccc4)c4nc[nH]c(=O)c34)cc2)CC1` (stereo not shown) [Ex-48]: the IC50 was not above 100 nM.

Take `O=C1CCCN1c1ccc(-c2cn(-c3ccccc3)c3nc[nH]c(=O)c23)cc1` [Ex-19]: the IC50 is not above 100 nM.

In the case of `N#Cc1cccc(-c2cn(-c3ccccc3)c3c(=O)[nH]cnc23)c1` [Ex-100], the IC50 fell in the range of 100 to 1000 nM.

For the compound `O=c1[nH]cnc2c1c(-c1ccc(OCC3(O)COC3)cc1)cn2-c1ccccc1` [Ex-69], the IC50 is not above 100 nM.

As to `CC(C)(C)OC(=O)NCCOc1ccc(-c2cn(-c3ccccc3)c3nc[nH]c(=O)c23)cc1` [Ex-63], the IC50 fell in the range of 100 to 1000 nM.

In the case of `N#Cc1ccc(-c2cn(-c3ccccc3)c3nc[nH]c(=O)c23)cc1` [Ex-11, 4-(4-oxo-7-phenyl-4,7-dihydro-3H-pyrrolo[2,3-d]pyrimidin-5-yl)-benzonitrile], the IC50 was not above 100 nM.

As to `C[C@@H](O)COc1ccc(-c2cn(-c3ccccc3)c3c(=O)[nH]cnc23)cc1` [Ex-92], the IC50 lay within 100 to 1000 nM.

With `CN(C)CC(O)COc1ccc(-c2cn(-c3ccccc3)c3nc[nH]c(=O)c23)cc1` (stereo not shown) [Ex-46], the IC50 was not above 100 nM.

As to `O=c1[nH]cnc2c1c(-c1ccccc1Cl)cn2-c1ccccc1` [Ex-30], the IC50 lay within 100 to 1000 nM.

On to `CC(C)(O)COc1ccc(-c2cn(-c3ccccc3)c3nc[nH]c(=O)c23)cc1C#N` [Ex-7, 2-(2-Hydroxy-2-methylpropoxy)-5-(4-oxo-7-phenyl-4,7-dihydro-3H-pyrrolo[2,3-d]pyrimidin-5-yl)benzonitrile], for which the IC50 was not above 100 nM.

As to `O=c1[nH]cnc2c1c(-c1c(F)cccc1F)cn2-c1ccccc1` [Ex-34], the IC50 lay in the range of 100 to 1000 nM.

As to `O=c1[nH]cnc2c(-c3ccc(OCC4CCNC4)cc3)cn(-c3ccccc3)c12` (stereo not shown) [Ex-94, 5-Phenyl-7-[4-(pyrrolidin-3-ylmethoxy)-phenyl]-3,5-dihydro-pyrrolo[3,2-d]pyrimidin-4-one], the IC50 was more than 1000 nM.

On to `O=c1[nH]cnc2c(-c3ccccc3)cn(-c3ccccc3)c12` [Ex-97], for which the IC50 was not above 100 nM.

For the compound `O=C(Nc1ccc(-c2cn(-c3ccccc3)c3nc[nH]c(=O)c23)cc1)N1CCC(O)C1` (racemic) [compound 39], the IC50 was not above 100 nM.

Regarding `O=c1[nH]cnc2c1c(-c1ccc(Cn3ccnc3)cc1)cn2-c1ccccc1` [Ex-13], the IC50 is not above 100 nM.

For the compound `O=C(O)Cc1ccc(-c2cn(-c3ccccc3)c3nc[nH]c(=O)c23)cc1` [Ex-82, [4-(4-Oxo-7-phenyl-4,7-dihydro-3H-pyrrolo[2,3-d]pyrimidin-5-yl)-phenyl]-acetic acid], the IC50 is not above 100 nM.

As to `O=c1[nH]cnc2c1c(-c1ccc(OCC(O)CO)cc1)cn2-c1ccccc1` (stereo not shown) [Ex-68], the IC50 is not above 100 nM.

For the compound `CCOC(=O)c1cccc(-c2cn(-c3ccccc3)c3c(=O)[nH]cnc23)c1` [Ex-96, 3-(4-Oxo-5-phenyl-4,5-dihydro-3H-pyrrolo[3,2-d]pyrimidin-7-yl)-benzoic acid ethyl ester], the IC50 was more than 1000 nM.

Turning to `O=c1[nH]cnc2c(-c3ccc(OCC(O)CO)cc3)cn(-c3ccccc3)c12` (stereo not shown) [Ex-88, 7-[4-(2,3-Dihydroxypropoxy)-phenyl]-5-phenyl-3,5-dihydropyrrolo[3,2-d]pyrimidin-4-one], the IC50 is 100 to 1000 nM.

As to `CN1CCC(COc2ccc(-c3cn(-c4ccccc4)c4c(=O)[nH]cnc34)cc2)C1` (stereo not shown) [Ex-95, 7-[4-(1-Methyl-pyrrolidin-3-ylmethoxy)-phenyl]-5-phenyl-3,5-dihydro-pyrrolo[3,2-d]pyrimidin-4-one], the IC50 was more than 1000 nM.

In the case of `COc1ccc(-c2cn(-c3ccccc3)c3nc[nH]c(=O)c23)cc1` [Ex-23], the IC50 is not above 100 nM.

In the case of `CN1CCN(CC(O)COc2ccc(-c3cn(-c4ccccc4)c4nc[nH]c(=O)c34)cc2)CC1=O` (stereo not shown) [Ex-50], the IC50 is not above 100 nM.

Regarding `O=C(CN1CCOCC1)Nc1ccc(-c2cn(-c3ccccc3)c3nc[nH]c(=O)c23)cc1` [Ex-16], the IC50 was not above 100 nM.

Turning to `NC(=O)c1ccc(-n2cc(-c3ccccc3)c3c(=O)[nH]cnc32)cc1` [Ex-6], the IC50 was 100 to 1000 nM.

Take `CN(C)CCN1CCN(c2ccc(-c3cn(-c4ccccc4)c4nc[nH]c(=O)c34)cc2)C1=O` [Ex-33]: the IC50 was not above 100 nM.

In the case of `O=C1COCCN1CC(O)COc1ccc(-c2cn(-c3ccccc3)c3nc[nH]c(=O)c23)cc1` (stereo not shown) [Ex-38], the IC50 is not above 100 nM.

For `NCCOc1ccc(-c2cn(-c3ccccc3)c3nc[nH]c(=O)c23)cc1` [Ex-78], the IC50 is not above 100 nM.

On to `C[C@H](O)COc1ccc(-c2cn(-c3ccccc3)c3nc[nH]c(=O)c23)cc1` [Ex-53], for which the IC50 was not above 100 nM.

For `COc1ccc(-n2cc(-c3ccc(OCCCN(C)C)cc3)c3nc[nH]c(=O)c32)cc1` [Ex-85], the IC50 was not above 100 nM.

As for `NCc1ccc(-c2cn(-c3ccccc3)c3nc[nH]c(=O)c23)cc1` [Ex-74, 5-(4-Aminomethyl-phenyl)-7-phenyl-3,7-dihydro-pyrrolo[2,3-d]pyrimidin-4-one], the IC50 was in the range of 100 to 1000 nM.

In the case of `NCc1cccc(-c2cn(-c3ccccc3)c3nc[nH]c(=O)c23)c1` [Ex-75], the IC50 was in the range of 100 to 1000 nM.

For `O=c1[nH]cnc2c1c(-c1ccc(OCC(O)CN3CCOCC3)cc1)cn2-c1cccc(F)c1` (stereo not shown) [Ex-43], the IC50 was not above 100 nM.

With `N#Cc1cccc(-c2cn(-c3ccccc3)c3nc[nH]c(=O)c23)c1` [Ex-8], the IC50 is not above 100 nM.

Regarding `O=c1[nH]cnc2c1c(-c1cccc(OCCO)c1)cn2-c1ccccc1` [Ex-47], the IC50 lay within 100 to 1000 nM.

For the compound `CC(C)(O)CN1CCN(c2ccc(-c3cn(-c4ccccc4)c4nc[nH]c(=O)c34)cc2)C1=O` [Ex-37], the IC50 was not above 100 nM.

For `CN1CCN(CC(=O)Nc2ccc(-c3cn(-c4ccccc4)c4nc[nH]c(=O)c34)cc2)CC1` [Ex-17], the IC50 was not above 100 nM.

Consider `CC(C)(O)COc1ccc(-c2cn(-c3ccccc3)c3nc[nH]c(=O)c23)cc1` [Ex-64], for which the IC50 was not above 100 nM.

In the case of `O=c1[nH]cnc2c1c(-c1ccccc1)cn2-c1ccc(Cn2ccnc2)cc1` [Ex-4], the IC50 was more than 1000 nM.

`O=c1[nH]cnc2c(-c3ccc(OCC(O)CN4CCCC4)cc3)cn(-c3ccccc3)c12` (stereo not shown) [Ex-91]: the IC50 lay within 100 to 1000 nM.

On to `CN1CC(COc2ccc(-c3cn(-c4ccccc4)c4nc[nH]c(=O)c34)cc2)C1` [Ex-67], for which the IC50 is 100 to 1000 nM.

On to `N#Cc1ccc(-c2cn(-c3ccccc3)c3c(=O)[nH]cnc23)cc1` [Ex-99], for which the IC50 fell in the range of 100 to 1000 nM.

Take `O=c1[nH]cnc2c1c(-c1ccc(OCCCO)cc1)cn2-c1ccccc1` [Ex-36]: the IC50 is not above 100 nM.

Regarding `Cc1cc(OCCO)ccc1-c1cn(-c2ccccc2)c2nc[nH]c(=O)c12` [Ex-57], the IC50 is not above 100 nM.

For `CS(=O)(=O)c1ccc(-n2cc(-c3ccccc3)c3c(=O)[nH]cnc32)cc1` [Ex-3], the IC50 was more than 1000 nM.

Take `C[C@H](O)COc1ccc(-c2cn(-c3ccccc3)c3c(=O)[nH]cnc23)cc1` [Ex-93]: the IC50 was more than 1000 nM.

Take `O=c1[nH]cnc2c1c(-c1ccc(OCC3CNC3)cc1)cn2-c1ccccc1` [Ex-80, 5-[4-(Azetidin-3-ylmethoxy)-phenyl]-7-phenyl-3,7-dihydro-pyrrolo[2,3-d]pyrimidin-4-one-formate salt]: the IC50 was not above 100 nM.

Take `CN(C)CC(=O)Nc1cccc(-c2cn(-c3ccccc3)c3nc[nH]c(=O)c23)c1` [Ex-24]: the IC50 was more than 1000 nM.

`O=c1[nH]cnc2c(-c3ccc(OCC(O)CN4CCOCC4)cc3)cn(-c3ccccc3)c12` (stereo not shown) [Ex-89]: the IC50 fell in the range of 100 to 1000 nM.

In the case of `O=c1[nH]cnc2c1c(-c1ccc(N3CCCC3)cc1)cn2-c1ccccc1` [Ex-62], the IC50 was not above 100 nM.
